The record followed here is patent publication US20230203043A1, “NOVEL IMIDAZOPYRAZINE DERIVATIVES” (Hoffmann-La Roche Inc., priority 2020, published 2023).

Where a name gives a salt, the structure may show the parent alone.

One assay concerns Acinetobacter baumannii ATCC17961. Briefly: Antimicrobial susceptibility testing: 90% growth inhibitory concentration (IC90) determination in Iso-Sensitest broth, OD600 growth. Type of assay: cell-based. The following applies: Acinetobacter baumannii, ATCC17961, 16 h, read-out: A. baumannii ATCC 17961 IC90 (uM), strain ATCC 17961, OD600 growth over 16 h. In outline: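 Twofold compound dilutions (e.g. 50 to 0.097 μM final) in Iso-Sensitest broth with ~5×10^(5) CFU/ml, 35±2 °C. OD600 read every 20 min over 16 h; IC90 from growth inhibition during logarithmic phase.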
For `Cc1cc(Nc2nccn3c(-c4c[nH]nc4C(F)(F)F)cnc23)ccc1C(=O)N1CCN(C(=O)NC2CNC2)CC1` [Example 408, N-(azetidin-3-yl)-4-[2-methyl-4-[[3-[3-(trifluoromethyl)-1H-pyrazol-4-yl]imidazo[1,2-a]pyrazin-8-yl]amino]benzoyl]piperazine-1-carboxamide formate], the IC90 turned out to be 0.481 µM.

Consider `O=C(c1ccc(Nc2nccn3c(-c4c[nH]nc4C(F)(F)F)cnc23)cc1Cl)N1CCN(C(=O)[C@@H]2C[C@@H](O)CN2)CC1` [Example 448, [2-chloro-4-[[3-[3-(trifluoromethyl)-1H-pyrazol-4-yl]imidazo[1,2-a]pyrazin-8-yl]amino]phenyl]-[4-[(2S,4R)-4-hydroxypyrrolidine-2-carbonyl]piperazin-1-yl]methanone formate], for which the IC90 stood at 0.235 µM.

As to `CCc1cc(Nc2nccn3c(-c4cn(CC#N)nc4C(F)(F)F)cnc23)ccc1C(=O)NCC1CC1N` (stereo not drawn) [Example 623, N-((2-aminocyclopropyl)methyl)-4-((3-(1-(cyanomethyl)-3-(trifluoromethyl)-1H-pyrazol-4-yl)imidazo[1,2-a]pyrazin-8-yl)amino)-2-ethylbenzamide formate], the IC90 is 0.161 µM. As to `O=C(NCC1CNC1)N1CCN(C(=O)c2ccc(Nc3nccn4c(-c5c[nH]nc5C(F)(F)F)cnc34)cc2Cl)CC1` [Example 393, N-(azetidin-3-ylmethyl)-4-[2-chloro-4-[[3-[3-(trifluoromethyl)-1H-pyrazol-4-yl]imidazo[1,2-a]pyrazin-8-yl]amino]benzoyl]piperazine-1-carboxamide formate], the IC90 was 0.239 µM. On the same count and under the same terms, in the case of `NCCCC[C@H](N)C(=O)NCCNC(=O)c1ccc(Nc2nccn3c(-c4c[nH]nc4C(F)(F)F)cnc23)cc1Cl` [Example 224, 2-chloro-N-[2-[[(2S)-2,6-diaminohexanoyl]amino]ethyl]-4-[[3-[3-(trifluoromethyl)-1H-pyrazol-4-yl]imidazo[1,2-a]pyrazin-8-yl]amino]benzamide formate] it was 1.5 µM. Same read-out and setting: under `C[C@@H](NC(=O)c1ccc(Nc2nccn3c(-c4c[nH]nc4C(F)(F)F)cnc23)cc1Cl)C(=O)N1CC(N)C1` [Example 99, N-[(2R)-1-(3-aminoazetidin-1-yl)-1-oxopropan-2-yl]-2-chloro-4-[[3-[3-(trifluoromethyl)-1H-pyrazol-4-yl]imidazo[1,2-a]pyrazin-8-yl]amino]benzamide formate] stands 2.08 µM. The same measure, in the same setting: in the case of `CCc1cc(Nc2nccn3c(-c4cn(CCF)nc4C(F)(F)F)cnc23)ccc1C(=O)NCCOCCN1CCOCC1` [Example 737, 2-ethyl-4-((3-(1-(2-fluoroethyl)-3-(trifluoromethyl)-1H-pyrazol-4-yl)imidazo[1,2-a]pyrazin-8-yl)amino)-N-(2-(2-morpholinoethoxy)ethyl)benzamide formate] it was 0.495 µM; in that of `CCc1cc(Nc2nccn3c(-c4cn(CCC(C)C)nc4C(F)(F)F)cnc23)ccc1C(=O)NCCOCCN` [Example 28, N-[2-(2-aminoethoxy)ethyl]-2-ethyl-4-[[3-[1-(3-methylbutyl)-3-(trifluoromethyl)pyrazol-4-yl]imidazo[1,2-a]pyrazin-8-yl]amino]benzamide formate], 0.369 µM; in that of `CCc1cc(Nc2nccn3c(-c4cn(C5CCC5)nc4C(F)(F)F)cnc23)ccc1C(=O)NCCOCCN1CCCC1` [Example 619, 4-((3-(1-cyclobutyl-3-(trifluoromethyl)-1H-pyrazol-4-yl)imidazo[1,2-a]pyrazin-8-yl)amino)-2-ethyl-N-(2-(2-(pyrrolidin-1-yl)ethoxy)ethyl)benzamide formate], 0.131 µM. In the case of `NCCNC(=O)NCCNC(=O)c1ccc(Nc2nccn3c(-c4c[nH]nc4C(F)(F)F)cnc23)cc1Cl` [Example 222, N-[2-(2-aminoethylcarbamoylamino)ethyl]-2-chloro-4-[[3-[3-(trifluoromethyl)-1H-pyrazol-4-yl]imidazo[1,2-a]pyrazin-8-yl]amino]benzamide formate], the IC90 stood at 1.09 µM.

Staying with this assay, now noted: Acinetobacter baumannii, ATCC17961, 16 h, strain ATCC 17961, OD600 growth over 16 h, read-out: A. baumannii ATCC 17961 IC90.
For the compound `CCc1cc(Nc2nccn3c(-c4cn(CC#N)nc4C(F)F)cnc23)ccc1C(=O)N1CCN(C(=O)[C@H](N)C(C)C)CC1` [Example 797, 2-(4-(8-((4-(4-(D-valyl)piperazine-1-carbonyl)-3-ethylphenyl)amino)imidazo[1,2-a]pyrazin-3-yl)-3-(difluoromethyl)-1H-pyrazol-1-yl)acetonitrile], the IC90 was 2.36 µM. The same measure, in the same setting: in the case of `NCCNC(=O)CNC(=O)c1ccc(Nc2nccn3c(-c4c[nH]nc4C(F)(F)F)cnc23)cc1Cl` [Example 166, N-[2-(2-aminoethylamino)-2-oxoethyl]-2-chloro-4-[[3-[3-(trifluoromethyl)-1H-pyrazol-4-yl]imidazo[1,2-a]pyrazin-8-yl]amino]benzamide] it was 4.48 µM; in that of `O=C(c1ccc(Nc2nccn3c(-c4cn(CC(F)F)nc4C(F)(F)F)cnc23)cc1Cl)N1CCN(C(=O)[C@@H]2CCCN2)CC1` [Example 115, [2-chloro-4-[[3-[1-(2,2-difluoroethyl)-3-(trifluoromethyl)pyrazol-4-yl]imidazo[1,2-a]pyrazin-8-yl]amino]phenyl]-[4-[(2S)-pyrrolidine-2-carbonyl]piperazin-1-yl]methanone], 0.251 µM; in that of `N#CCn1cc(-c2cnc3c(Nc4ccc(C(=O)N5CCN(C(=O)[C@@H]6CCNC6)CC5)c(Cl)c4)nccn23)c(C(F)(F)F)n1` [Example 191, 2-[4-[8-[3-chloro-4-[4-[(3R)-pyrrolidine-3-carbonyl]piperazine-1-carbonyl]anilino]imidazo[1,2-a]pyrazin-3-yl]-3-(trifluoromethyl)pyrazol-1-yl]acetonitrile], 0.276 µM. On the same count and under the same terms, under `Cc1cc(Nc2nccn3c(-c4cn(CCF)nc4C(F)(F)F)cnc23)cc(F)c1C(=O)N1CCN(C(=O)[C@H]2CC[C@H](O)N2)CC1` [Example 714, (4-(2-fluoro-4-((3-(1-(2-fluoroethyl)-3-(trifluoromethyl)-1H-pyrazol-4-yl)imidazo[1,2-a]pyrazin-8-yl)amino)-6-methylbenzoyl)piperazin-1-yl)((2R,5S)-5-hydroxypyrrolidin-2-yl)methanone] stands 0.422 µM; under `O=C(c1ccc(Nc2nccn3c(-c4c[nH]nc4C(F)(F)F)cnc23)cc1Cl)N1CCN(C(=O)[C@@]2(O)CCCNC2)CC1` [Example 248, [2-chloro-4-[[3-[3-(trifluoromethyl)-1H-pyrazol-4-yl]imidazo[1,2-a]pyrazin-8-yl]amino]phenyl]-[4-[(3R)-3-hydroxypiperidine-3-carbonyl]piperazin-1-yl]methanone], 0.311 µM; under `CCc1cc(Nc2nccn3c(-c4cn(CC(F)F)nc4C(F)(F)F)cnc23)ccc1C(=O)NCCNC(=O)[C@@H]1CC[C@H](N)C1` [Example 497, N-(2-((1R,3S)-3-aminocyclopentane-1-carboxamido)ethyl)-4-((3-(1-(2,2-difluoroethyl)-3-(trifluoromethyl)-1H-pyrazol-4-yl)imidazo[1,2-a]pyrazin-8-yl)amino)-2-ethylbenzamide formate], 0.183 µM. The same measure, in the same setting: under `CCc1cc(Nc2nccn3c(-c4cn(CC#N)nc4C(F)F)cnc23)ccc1C(=O)N1CCN(C(=O)[C@H]2C[C@H](N)C2)CC1` [Example 800, 2-(4-(8-((4-(4-((1r,3r)-3-aminocyclobutane-1-carbonyl)piperazine-1-carbonyl)-3-ethylphenyl)amino)imidazo[1,2-a]pyrazin-3-yl)-3-(difluoromethyl)-1H-pyrazol-1-yl)acetonitrile] stands 2.78 µM; under `Cc1cc(Nc2nccn3c(-c4cn(CC#N)nc4C(F)(F)F)cnc23)cc(F)c1C(=O)N[C@H](C)CN` [Example 719, (R)-N-(1-aminopropan-2-yl)-4-((3-(1-(cyanomethyl)-3-(trifluoromethyl)-1H-pyrazol-4-yl)imidazo[1,2-a]pyrazin-8-yl)amino)-2-fluoro-6-methylbenzamide], 0.435 µM.

As for `CCc1cc(Nc2nccn3c(-c4c[nH]nc4C(F)(F)F)cnc23)ccc1C(=O)NCCCNC(=O)[C@@H]1CCCN1` [Example 634, (S)-N-(3-(2-ethyl-4-((3-(3-(trifluoromethyl)-1H-pyrazol-4-yl)imidazo[1,2-a]pyrazin-8-yl)amino)benzamido)propyl) pyrrolidine-2-carboxamide], the IC90 is 0.218 µM.

The same assay, now with this note: strain ATCC 17961, OD600 growth over 16 h, read-out: A. baumannii ATCC 17961 IC90.
Regarding `NC1CC(NC(=O)c2ccc(Nc3nccn4c(-c5c[nH]nc5C(F)(F)F)cnc34)cc2Cl)C1` (stereo not drawn) [Example 403, N-(3-aminocyclobutyl)-2-chloro-4-[[3-[3-(trifluoromethyl)-1H-pyrazol-4-yl]imidazo[1,2-a]pyrazin-8-yl]amino]benzamide], the IC90 was 0.398 µM.

For the compound “4-[2-chloro-4- [[3-[1-(2- cyanoethyl)-3- pyrazol-4- yl]imidazo[1,2- a]pyrazin-8- yl]amino]benzoyl]- N-[(3R)- pyrrolidin-3- yl]piperazine-1- carboxamide formate [Example 261]”, the IC90 worked out at 0.521 µM. Same read-out and setting: in the case of `NC1CC(NC(=O)N2CCN(C(=O)c3ccc(Nc4nccn5c(-c6c[nH]nc6C(F)(F)F)cnc45)cc3Cl)CC2)C1` (stereo not drawn) [Example 289, N-(3-aminocyclobutyl)-4-[2-chloro-4-[[3-[3-(trifluoromethyl)-1H-pyrazol-4-yl]imidazo[1,2-a]pyrazin-8-yl]amino]benzoyl] piperazine-1-carboxamide formate] it was 0.234 µM.

As to `Cc1cc(Nc2nccn3c(-c4cn(CC#N)nc4C(F)(F)F)cnc23)cc(F)c1C(=O)N[C@H](C)CNC(=O)[C@H]1C[C@@H](N)C1` [Example 709, N-((R)-1-((1s,3S)-3-aminocyclobutane-1-carboxamido)propan-2-yl)-4-((3-(1-(cyanomethyl)-3-(trifluoromethyl)-1H-pyrazol-4-yl)imidazo[1,2-a]pyrazin-8-yl)amino)-2-fluoro-6-methylbenzamide formate], the IC90 stood at 0.404 µM.
